Test results taken from US11142543B2 (priority 2016, dated 2021).
Marks after values point to notes of the source that are not given here.

Columns and labels:
ICR mice [1] = test: Tail suspension test (TST), Example 39; assay type: in vivo; settings: gavage 10 mg/Kg for 6 days, t-test
From the text: Tail Suspension Test (TST) to Investigate the Antidepressant Activity of Some Compounds and Some Natural Products of the Present Invention
(§1) Male ICR mice (body weight, 20±2 g) used in the experiment were purchased from the Experimental Animal Center of Shanghai Institute of Materia Medica, Chinese Academy of Sciences. They were free access to water and kept at room temperature (23 2) ° C. in natural light. All mice were randomly divided into a blank control group and a test group, with 10 mice in each group and 5 mice/cage. The experiment was started after 3 days of adaptation in the breeding environment. The mice were fasted for 12 hours before the experiment but free access to water. The specific administration method was gavage administration, and the administration dose was 10 mg/Kg, and the blank control group was given an equal volume of 0.5% CMC-Na.
Specific procedures: The mice were continuously administered for 6 days, and tested 1 hour after the last administration. Firstly, the spontaneous activity of the mice was measured by the open field method, that is, the mice were individually placed in a cylindrical glass jar for 4 minutes, and the number of lifting arms within the last 2 minutes was recorded. Then the tail of the mice was stick onto the horizontal bar by the tape at 2 cm from the tip of the tail, and the animal eyesight was separated by the surrounding plates. The horizontal bar was about 25 cm from the ground, so that the mouse was about 10 cm from the ground, and the timing was 6 min. The cumulative immobility time within the last 4 minutes was recorded. Each group of mice was operated in parallel.
(§2) Experimental data processing: The experimental results were expressed as mean standard error (x SD). Statistical analysis was performed using t-test to determine whether it was significant. […] Then, the t-test was performed on the experimental index of tail suspension test to determine whether it had antidepressant effect.

ICR mice [2] = test: Forced swimming test (FST), Example 38; assay type: in vivo; settings: gavage 10 mg/Kg for 6 days, t-test
From the text: Forced swimming test (FST) to investigate the antidepressant activity of some compounds and some natural products of the present invention
as §1, with “dose of the administration group” for “dose”
Specific procedures: The mice were continuously administered for 6 days, and tested 1 hour after the last administration. Firstly, the spontaneous activity of the mice was measured by the open field method, that is, the mice were individually placed in a cylindrical glass jar for 4 minutes, and the number of lifting arms within the last two minutes was recorded. The mice were then individually placed in a cylindrical glass jar (20 cm high and 14 cm in diameter) with a water depth of 10 cm and a water temperature of 23° C. to 25° C. After mice entered into water, a 6-minute timing was conducted, the cumulative immobility time (the criteria for determining immobility: the mice stopped struggling in the water, or floated with only small limb movements to keep the head float on the water) within the last four minutes was recorded. Each group of mice was operated in parallel.
as §2, with “forced swimming” for “tail suspension test”

ICR mice [3] = test: Toxicity observed during antidepressant efficacy screening (FST and TST animal batch); assay type: in vivo; settings: same animal batch as efficacy screening, gavage 10 mg/Kg
From the text: as §1, with “dose of the administration group” for “dose”
as §1, with “The specific administration method was gavage administration, and the administration dose was 10 mg/Kg, and the blank control group was given an equal volume of 0.5% CMC-Na.” left out

[4] = tested on: ICR mice with ethanol-induced memory reproduction disorder
Experimental: Learning memory is an advanced function of the human and animal brains.
Before the retesting after training, the ethanol solution was administered to the mouse to block the memory reproduction process of the animal, resulting in memory reproduction disorder.
Male ICR mice, 16-18 g, were purchased from Shanghai Sippr-BK laboratory animal Co. Ltd.
40 male mice were randomly divided into 4 groups by Excel, and each group contained 10 animals. The mice in group 1 (blank group) and mice in group 2 (model group) were orally administered (i.g.) with drinking water daily.
After 3 weeks of administration, 1 hour after the last administration, the exercise was performed once in the dark avoidance method. The mice were placed in a dark avoidance box, and placed in the bright room with the back facing the hole. At the same time, the video analysis device was activated, and the animal passed through the hole into the dark room and received an electric shock, and the timing was automatically stopped. The mice were removed and the screen analysis would record the time required for each mouse to experience an electric shock from the bright room to the dark room, which was the latency period. After 24 h, the test was carried out, and 45% ethanol solution (0.1 ml/10 g) was orally administered 30 min before the test. The video analysis system would automatically record all relevant data of the animal. Data were expressed as mean standard deviation (x±s), and data difference statistics were analyzed by one-way variance (ANOVA) or X^2 test. The difference between groups was judged by P<0.05.

in vivo = settings: male, SD, rat
Experimental: The healthy male SD rats (about 270 g) were fasted for 10 h before administration, and were free to drink water. […] The time points of blood collection from the eye socket were 30 min, 1 h, 2 h, 4 h, 6 h, 8 h, 10 h, 24 h, 48 h after the administration (n=5). […] The time points of blood collection from the eye socket were 5 min, 10 min, 30 min, 1 h, 2 h, 4 h, 8 h (n=4). The plasma was placed in a heparin-coated centrifuge tube, centrifuged for 10 min (8000 r), and the supernatant was taken and stored in a −80° C. refrigerator. After acetonitrile precipitation treatment, it was detected by HPLC-QQQ. The pharmacokinetic parameters, PK parameters of each mouse were calculated by a non-compartmental model of WinNonlin (Pharsight 6.2, NC, USA). All parameters were represented with Mean S.D. Bioavailability (F)=(AUCOral/DoseOral)/(AUCtail vein/Dosetail vein)

[5] = tested on: C57 mice susceptible to social defeat by CD-1 aggressive mice; test: Social defeated stress (SDS) model, Example 42; assay type: in vivo; settings: C-11 10 mg/kg gavage every day, fluoxetine 10 mg/kg intraperitoneally every day, 3 weeks
Experimental: Male CD-1 aged 4-6 months mice which had passed childbearing age were raised separately, allowed to eat freely and adapt to the environment for about one week. Male C57 mice (aged 8-20 weeks differently) were used to screen for aggressive CD-1 mice. The mice screened by C57 were placed directly in the cage of CD-1 for 3 minutes, and the latency period for CD-1 to start showing offensive was recorded, and then the mice screened by C57 were moved out. For each CD-1 mouse, the same C57 was used to screen it three times a day, and different C57-selected mice were selected every day for a total of three days of screening. […] After screening for CD-1 aggressive mice for modeling, each C57 test mouse was exposed to different CD-1 aggressive mice for 10 consecutive days, 10 minutes each day. […] After 10 minutes of contact, the test mice were isolated from the invaders. Test mice and aggressive mice were placed in adjacent sections of the same squirrel cage, separated by a porous transparent plastic baffle, allowing test mice to be exposed under a threatening chronic stress stimulation for the next 24 hours. The control mice were placed in cages having the same structure, but the other side of the baffle was placed with other mice of the same line that were replaced daily. After 24 hours after the end of the last day of the experiment, we evaluated CSDS-induced social behavioral changes and selected all susceptible mice based on previous reports. The social interaction ratio (SI ratio) was calculated according to the following formula: SI ratio=time for the mouse in the interaction area when the aggressor exists/time for the mouse in the interaction area when the aggressor is absent. […] All selected test mice and control mice were then housed individually for 3 weeks. […] The mice in the vehicle group were administered by gavage with 0.5% CMC-Na every day. The SI ratio was assessed once a week.
Two-way ANOVA was used to analyze and LSD method was used for the multiple comparisons of calibration results. The data were expressed in Mean sem. […]

rats [6] = test: Forced swimming test in rat model, compound C-11 versus fluoxetine, Example 41; assay type: in vivo; settings: vs vehicle group, FIG. 3
Experimental: The rats were placed in a cylindrical jar 24 hours before administration to accommodate the underwater environment for 15 min. On the day of the behavioral test, animals were administered twice and administered orally 4 h and 1 h before the behavioral test. The rats were individually placed in a cylindrical glass jar, timed for 6 minutes, and the number of arm lift was recorded within the last 2 minutes. The rats were then placed in a cylindrical glass jar having 30 cm high and 20 cm in diameter. […] Water temperature was 23° C.-25° C.

rats [7] = test: Tail suspension test in rat model, compound C-11 versus fluoxetine, Example 41; assay type: in vivo; settings: vs vehicle group, FIG. 4
Experimental: On the day of the behavioral test, animals were dosed twice and administered orally 4 h and 1 h before the behavioral test. During the experiment, the tail of the rat was hung on a tail suspension test stand about 15 cm away from the ground with a tape or a clip at about 1 cm away from the tail end. […] The experimental time for each group was 6 minutes.

[8] = i.g. once a day for three consecutive weeks, donepezil 1.6 mg/kg, C-49 15 mg/kg, n = 10

In the case of C[C@H]1CC[C@@]2(OC1)O[C@H]1C[C@H]3[C@@H]4CC[C@@H]5C[C@H](NC(=O)NC6CCC(O)CC6)CC[C@]5(C)[C@H]4CC[C@]3(C)[C@H]1[C@@H]2C (stereo partly drawn) [compound C-5], the “effect on immobility time of mouse in tail suspension test compared with the blank group (in words)” value (ICR mice [1]) is reported as “certain antidepressant activity”.

In the case of C[C@H]1CC[C@@]2(OC1)O[C@H]1C[C@H]3[C@@H]4CC[C@@H]5C[C@H](NC(=O)NN6CCOCC6)CC[C@]5(C)[C@H]4CC[C@]3(C)[C@H]1[C@@H]2C [compound C-7], the “effect on immobility time of mouse in tail suspension test compared with the blank group (in words)” value (ICR mice [1]) is reported as “certain antidepressant activity”.

With C[C@H]1CC[C@@]2(OC1)O[C@H]1C[C@H]3[C@@H]4CC[C@@H]5C[C@@H](NC(=O)NC6CCCCC6)CC[C@]5(C)[C@H]4CC[C@]3(C)[C@H]1[C@@H]2C [compound C-12] the “effect on immobility time of mice in forced swimming test compared with the blank group (in words)” value (ICR mice [2]) was “significant antidepressant activity”, the “effect on immobility time of mouse in tail suspension test compared with the blank group (in words)” value (ICR mice [1]) was “significant antidepressant activity” and the toxicity observed (ICR mice [3]) was “No significant toxicity was observed”.

For C[C@H]1CC[C@@]2(OC1)O[C@H]1C[C@H]3[C@@H]4CC[C@@H]5C[C@H](NC(=O)Nc6ccccc6)CC[C@]5(C)[C@H]4CC[C@]3(C)[C@H]1[C@@H]2C [compound C-13], the “effect on immobility time of mice in forced swimming test compared with the blank group (in words)” value (ICR mice [2]) was “significantly reduce the immobility time”.

For COC(=O)C1(NC(=O)N[C@@H]2CC[C@@]3(C)[C@H](CC[C@@H]4[C@@H]3CC[C@]3(C)[C@@H]5[C@H](C[C@@H]43)O[C@]3(CC[C@H](C)CO3)[C@H]5C)C2)CCCCC1 [compound C-19], the “effect on immobility time of mouse in tail suspension test compared with the blank group (in words)” value (ICR mice [1]) was “certain antidepressant activity”.

For C[C@H](CO)CC[C@H]1O[C@H]2C[C@H]3[C@@H]4CC[C@@H]5C[C@H](NC(=O)NC6CCCCC6)CC[C@]5(C)[C@H]4CC[C@]3(C)[C@H]2[C@@H]1C [compound C-23], the “effect on immobility time of mice in forced swimming test compared with the blank group (in words)” value (ICR mice [2]) was “certain antidepressant activity”.

For C[C@H]1CC[C@@]2(OC1)O[C@H]1C[C@H]3[C@@H]4CC[C@@H]5C[C@H](NC(=O)N(CCO)C6CCCCC6)CC[C@]5(C)[C@H]4CC[C@]3(C)[C@H]1[C@@H]2C [compound C-35], the “effect on immobility time of mouse in tail suspension test compared with the blank group (in words)” value (ICR mice [1]) was “significantly reduce the immobility time”.

For C[C@H]1CC[C@@]2(OC1)O[C@H]1C[C@H]3[C@@H]4CC[C@@H]5C[C@H](NC(=O)N(CCNC(=O)CN(C)C)C6CCCCC6)CC[C@]5(C)[C@H]4CC[C@]3(C)[C@H]1[C@@H]2C [compound C-49], the “effect on immobility time of mice in forced swimming test compared with the blank group (in words)” value (ICR mice [2]) was “significantly reduced the time immobility”, the “improvement effect on learning and memory (in words)” value ([4]; 15 mg/kg, three weeks, mice with memory reproduction disorder induced by ethanol) was “significant improvement effect” and the “Number of shocked animals” value [4, 8] was 3*. For the same compound, the “Total number of errors (within 5 min)” value [4, 8] was 3**, the “Latency period from an open room to a dark room” value ([4]; i.g. once a day for three consecutive weeks, donepezil 1.6 mg/kg, C-49 15 mg/kg, x ± s, n = 10) was 215.8 ± 135.8 s and the “effect on immobility time of mouse in tail suspension test compared with the blank group (in words)” value (ICR mice [1]) was “significantly reduce the immobility time”. For the same compound, the bioavailability (in vivo) was 11.1%, the AUC (in vivo; iv, 1 mg/kg) was 293 ng·h/mL and the Cmax (in vivo; iv, 1 mg/kg) was 285 ng/mL. It also gave a Tmax (in vivo; iv, 1 mg/kg) of 0.1 h, an AUC (in vivo; po, 100 mg/kg) of 3120 ng·h/mL and a Cmax (in vivo; po, 100 mg/kg) of 251 ng/mL. For the same compound, the Tmax (in vivo; po, 100 mg/kg) was 2.8 ± 1.1 h, the MRT (in vivo; po, 100 mg/kg, MRT) was 13.6 h and the half-life (in vivo; po, 100 mg/kg, T1/2) was 9.7 h.

For CNCCC(Oc1ccc(C(F)(F)F)cc1)c1ccccc1 (stereo not drawn) [fluoxetine], the mouse social time ([5]; FIG. 5A) was “did not work during the third week of administration”, the “social proportion of mice (SI ratio)” value ([5]; FIG. 5B) was “not effective after three weeks of administration” and the “effect on immobility time of rats in forced swimming test” value (shortened to “effect on immobility time of rats”) (rats [6]; dose 1.73 mg/kg oral) was “had no effect”. For the same compound, the “effect on wall climbing behavior of rats in forced swimming test” value (rats [6]; dose 1.73 mg/kg oral) was “had no effect”, the “effect on immobility time of rats” value (rats [6]; dose 3.46 mg/kg oral) was “had no effect” and the “effect on wall climbing behavior / wall climbing time of rats in forced swimming test” value (rats [6]; dose 3.46 mg/kg oral) was “had no effect”. The “effect on immobility time of rats” value (rats [6]; dose 6.92 mg/kg oral) was “significantly affect”, the “effect on wall climbing behavior of rats in forced swimming test” value (rats [6]; dose 6.92 mg/kg oral) was “significantly affect” and the “effect on cumulative immobility time of rats in tail suspension test” value (shortened to “effect on cumulative immobility time”) (rats [7]; dose 1.73 mg/kg oral) was “had no effect”. For the same compound, the “effect on cumulative immobility time” value (rats [7]; dose 3.46 mg/kg oral) was “had no effect” and the “effect on cumulative immobility time” value (rats [7]; dose 6.92 mg/kg oral) was “significantly affect the cumulative immobility time”.

With C[C@H]1CC[C@@]2(OC1)O[C@H]1C[C@H]3[C@@H]4CC[C@@H]5C[C@@H](O)CC[C@]5(C)[C@H]4CC[C@]3(C)[C@H]1[C@@H]2C [sarsasapogenin, reference compound] the “effect on immobility time of mice in forced swimming test compared with the blank group (in words)” value (ICR mice [2]) was “could not significantly reduce the immobility time” and the “effect on immobility time of mouse in tail suspension test compared with the blank group (in words)” value (ICR mice [1]) was “could not significantly reduce the immobility time”.

With C[C@H]1CC[C@@]2(OC1)O[C@H]1C[C@H]3C4CC[C@@H]5C[C@@H](O[C@@H]6OC(CO)[C@H](O)[C@H](O)C6O)CC[C@]5(C)C4CC[C@]3(C)C1[C@@H]2C (stereo partly drawn) [timosaponin A1, reference compound] the “effect on immobility time of mice in forced swimming test compared with the blank group (in words)” value (ICR mice [2]) was “could not significantly reduce the immobility time” and the “effect on immobility time of mouse in tail suspension test compared with the blank group (in words)” value (ICR mice [1]) was “could not significantly reduce the immobility time”.
